# Measured values published in patent US10441663B2, “Methods for treating cancer” (Bicycle Therapeutics Limited, priority 2016, dated 2019).
# *1 amine or outer side, *2 acyl side, *3 side chain or, on linkers, in order; H or OH if unused. Where a SMILES comes first, the peptide text is derived from it. Bridges are numbered along the chain shown (N, C = ends). [ ]: non-standard residue; d: D form. The star is where a group is joined. X1 = COc1cc2cc(c1Cl)N(C)C(=O)C[C@H](OC(=O)[C@H](C)N(C)C(=O)CCSSC(C)CCC(=O)*)[C@]1(C)O[C@H]1[C@H](C)[C@@H]1C[C@@](O)(NC(=O)O1)[C@H](OC)/C=C/C=C(\C)C2; 1Nal = N[C@@H](Cc1cccc2ccccc12)C(=O)O; TBMB = c1c(C[*:1])cc(C[*:3])cc1C[*:2]; Tle = CC(C)(C)[C@H](N)C(=O)O; βAla = NCCC(=O)O; Sar = CNCC(=O)O
# Assays:
# SNU-16 xenograft = assay: In vivo efficacy of BT1718 in SNU-16 xenograft; set-up: species or system Mus Musculus; key to Best response at 10 mg/kg: CR complete response; PR partial response
# Experimental: (§1) The objective of this study was to evaluate the in vivo anti-tumor efficacy of BT1718in treatment of HT1080, NCI-H292, NCI-H1975, MDA-MB-231, HCC1806, RPMI2650, HCT-15, HT-29 and SNU-16 xenograft in BALB/c nude mice.
# (§2) The HT1080, NCI-H292, NCI-H1975, MDA-MB-231, HCC1806, RPMI2650, HCT-15, HT-29 and SNU-16 tumor cells were maintained in vitro as a monolayer culture in medium supplemented with 10% heat inactivated fetal bovine serum at 37° C. in an […]. The tumor cells will be routinely subcultured twice weekly by trypsin-EDTA treatment. The cells growing in an exponential growth phase will be harvested and counted for tumor inoculation.
# (§3) Mouse was inoculated subcutaneously at the right flank with tumor cells for tumor development. The animals were randomized and treatment was started when the average tumor reaches certain volume for the efficacy study, the inoculating cell amounts and starting tumor size were shown as below in Table 9. The test article administration and the animal numbers in each group were shown in the experimental design in Table 10.
# (§4) All the procedures related to animal handling, care and the treatment in the study were performed according to the guidelines of the Association for Assessment and Accreditation of Laboratory Animal Care (AAALAC). At the time of routine monitoring, the animals were daily checked for any effects of tumor growth and treatments on normal behavior such as mobility, food and water consumption (by looking only), body weight gain/loss (body weights were measured every day), eye/hair matting and any other abnormal effect as stated in the protocol. Death and observed clinical signs were recorded on the basis of the numbers of animals within each subset.
# (§5) The major endpoint was to see if the tumor growth could be delayed or mice could be cured. Tumor size was measured three times weekly in two dimensions using a caliper, and the volume was expressed in mm^3 using the formula: V=0.5 a×b^2 where a and b are the long and short diameters of the tumor, respectively. The tumor size was then used for calculations of T/C value. The T/C value (in percent) is an indication of antitumor effectiveness; T and C are the mean volumes of the treated and control groups, respectively, on a given day.
# (§6) TGI was calculated for each group using the formula: TGI (%)=[1−(Ti−T0)/(Vi−V0)]×100; Ti is the average tumor volume of a treatment group on a given day, T0 is the average tumor volume of the treatment group on the day of treatment start, Vi is the average tumor volume of the vehicle control group on the same day with Ti, and V0 is the average tumor volume of the vehicle group on the day of treatment start.
# (§7) Summary statistics, including mean and the standard error of the mean (SEM), are provided for the tumor volume of each group at each time point.
# (§8) Statistical analysis of difference in tumor volume among the groups was conducted on the data obtained at the best therapeutic time point after the final dose.
# (§9) A one-way ANOVA was performed to compare tumor volume among groups, and when a significant F-statistics (a ratio of treatment variance to the error variance) was obtained, comparisons between groups were carried out with Games-Howell test. All data were analyzed using Prism. P<0.05 was considered to be statistically significant.
# HCC1806 xenograft = assay: In vivo efficacy of BT1718 in HCC1806 xenograft; set-up: species or system Mus Musculus; key to Best response at 10 mg/kg: CR complete response; PR partial response
# Experimental: as §1, §2, §3, §4, §5, §6, §7, §8, §9
structure (smiles),measurement,setting,value
COc1cc2cc(c1Cl)N(C)C(=O)C[C@H](OC(=O)[C@H](C)N(C)C(=O)CCSSC(C)CCC(=O)NCCC(=O)N(C)CC(=O)N(C)CC(=O)N(C)CC(=O)N(C)CC(=O)N(C)CC(=O)N(C)CC(=O)N(C)CC(=O)N(C)CC(=O)N(C)CC(=O)N(C)CC(=O)N[C@@H](C)C(=O)N[C@H]1CSCc3cc4cc(c3)CSC[C@H](NC(=O)[C@@H](C)NC(=O)[C@H](Cc3cccc5ccccc35)NC(=O)[C@H](CCC(=O)O)NC(=O)[C@H](CC(N)=O)NC(=O)[C@@H](C)NC1=O)C(=O)N[C@@H](CCC(=O)O)C(=O)N[C@@H](CC(=O)O)C(=O)N[C@@H](Cc1ccccc1)C(=O)N[C@@H](Cc1ccc(O)cc1)C(=O)N[C@@H](CC(=O)O)C(=O)N[C@@H](C(C)(C)C)C(=O)N[C@H](C(N)=O)CSC4)[C@]1(C)O[C@H]1[C@H](C)[C@@H]1C[C@@](O)(NC(=O)O1)[C@H](OC)/C=C/C=C(\C)C2 (stereo partly shown) [BT1718] ({X1-βAla}-[Sar][Sar][Sar][Sar][Sar][Sar][Sar][Sar][Sar][Sar]AC[dA]NE[1Nal][dA]CEDFYD[Tle]C-NH2; linker 12-18-25 via TBMB (inferred)),Body Weight,"SNU-16 xenograft; 1 mpk biw, day 0",22.9 ± 0.5 g
same,Tumor Volume,"SNU-16 xenograft; 1 mpk biw, day 0",160 ± 24 mm^3
same,Body Weight,"SNU-16 xenograft; 1 mpk biw, day 2",22.8 ± 0.5 g
same,Tumor Volume,"SNU-16 xenograft; 1 mpk biw, day 2",160 ± 15 mm^3
same,Body Weight,"SNU-16 xenograft; 1 mpk biw, day 4",23.0 ± 0.5 g
same,Tumor Volume,"SNU-16 xenograft; 1 mpk biw, day 4",140 ± 12 mm^3
same,Body Weight,"SNU-16 xenograft; 1 mpk biw, day 7",23.0 ± 0.4 g
same,Tumor Volume,"SNU-16 xenograft; 1 mpk biw, day 7",137 ± 13 mm^3
same,Body Weight,"SNU-16 xenograft; 1 mpk biw, day 9",22.7 ± 0.5 g
same,Tumor Volume,"SNU-16 xenograft; 1 mpk biw, day 9",139 ± 9 mm^3
same,Body Weight,"SNU-16 xenograft; 1 mpk biw, day 11",23.0 ± 0.5 g
same,Tumor Volume,"SNU-16 xenograft; 1 mpk biw, day 11",142 ± 11 mm^3
same,Body Weight,"SNU-16 xenograft; 1 mpk biw, day 14",23.3 ± 0.5 g
same,Tumor Volume,"SNU-16 xenograft; 1 mpk biw, day 14",176 ± 9 mm^3
same,Body Weight,"SNU-16 xenograft; 3 mpk biw, day 0",22.7 ± 0.3 g
same,Tumor Volume,"SNU-16 xenograft; 3 mpk biw, day 0",161 ± 29 mm^3
same,Body Weight,"SNU-16 xenograft; 3 mpk biw, day 2",22.1 ± 0.5 g
same,Tumor Volume,"SNU-16 xenograft; 3 mpk biw, day 2",115 ± 13 mm^3
same,Body Weight,"SNU-16 xenograft; 3 mpk biw, day 4",21.8 ± 0.2 g
same,Tumor Volume,"SNU-16 xenograft; 3 mpk biw, day 4",36 ± 4 mm^3
same,Body Weight,"SNU-16 xenograft; 3 mpk biw, day 7",21.5 ± 0.3 g
same,Tumor Volume,"SNU-16 xenograft; 3 mpk biw, day 7",25 ± 4 mm^3
same,Body Weight,"SNU-16 xenograft; 3 mpk biw, day 9",20.0 ± 0.1 g
same,Tumor Volume,"SNU-16 xenograft; 3 mpk biw, day 9",18 ± 1 mm^3
same,Body Weight,"SNU-16 xenograft; 3 mpk biw, day 11",20.2 ± 0.6 g
same,Tumor Volume,"SNU-16 xenograft; 3 mpk biw, day 11",5 ± 3 mm^3
same,Body Weight,"SNU-16 xenograft; 3 mpk biw, day 14",20.6 ± 0.6 g
same,Tumor Volume,"SNU-16 xenograft; 3 mpk biw, day 14",0 ± 0 mm^3
same,Best response at 10 mg/kg,"SNU-16 xenograft; SNU-16, 10 mg/kg",CR
same,TGI,"SNU-16 xenograft; SNU-16, 1 mpk, biw, day 14",51.4%
same,Tumor Volume,"SNU-16 xenograft; SNU-16, 1 mpk, biw, day 14",304 ± 43 mm^3
same,TGI,"SNU-16 xenograft; SNU-16, 3 mpk, biw, day 14",94.5%
same,Tumor Volume,"SNU-16 xenograft; SNU-16, 3 mpk, biw, day 14",176 ± 9 mm^3
same,TGI,"SNU-16 xenograft; SNU-16, 10 mpk, biw, day 14",155%
same,Tumor Volume,"SNU-16 xenograft; SNU-16, 10 mpk, biw, day 14",0 ± 0 mm^3
same,Minimally Effective Dose IV BIW,"SNU-16 xenograft; SNU-16, dose leading to tumor-stasis",3 mg/kg
same,dosing suspension until re-growth to 150 mm3,SNU-16 xenograft; after 10 mg/kg biw,7 weeks
same,tumor response,SNU-16 xenograft; after 2 weeks 10 mg/kg biw,completely regressed
same,dosing time until tumor regression on resumed treatment,"SNU-16 xenograft; mouse, in vivo",1-2 weeks
same,Body Weight,"HCC1806 xenograft; 1 mpk biw, day 0",22.5 ± 0.7 g
same,Tumor Volume,"HCC1806 xenograft; 1 mpk biw, day 0",188 ± 23 mm^3
same,Body Weight,"HCC1806 xenograft; 1 mpk biw, day 2",22.8 ± 0.7 g
same,Tumor Volume,"HCC1806 xenograft; 1 mpk biw, day 2",265 ± 53 mm^3
same,Body Weight,"HCC1806 xenograft; 1 mpk biw, day 4",23.6 ± 0.6 g
same,Tumor Volume,"HCC1806 xenograft; 1 mpk biw, day 4",428 ± 44 mm^3
same,Body Weight,"HCC1806 xenograft; 1 mpk biw, day 7",24.2 ± 0.5 g
same,Tumor Volume,"HCC1806 xenograft; 1 mpk biw, day 7",660 ± 85 mm^3
same,Body Weight,"HCC1806 xenograft; 1 mpk biw, day 9",24.0 ± 0.5 g
same,Tumor Volume,"HCC1806 xenograft; 1 mpk biw, day 9",793 ± 122 mm^3
same,Body Weight,"HCC1806 xenograft; 1 mpk biw, day 11",24.3 ± 0.6 g
same,Tumor Volume,"HCC1806 xenograft; 1 mpk biw, day 11",882 ± 118 mm^3
same,Body Weight,"HCC1806 xenograft; 1 mpk biw, day 14",24.8 ± 0.4 g
same,Tumor Volume,"HCC1806 xenograft; 1 mpk biw, day 14",1169 ± 137 mm^3
same,re-growth during dosing suspension,HCC1806 xenograft; 2 months dosing suspension period,no re-growth
same,Body Weight,"HCC1806 xenograft; 3 mpk biw, day 0",22.6 ± 1.0 g
same,Tumor Volume,"HCC1806 xenograft; 3 mpk biw, day 0",190 ± 17 mm^3
same,Body Weight,"HCC1806 xenograft; 3 mpk biw, day 2",23.2 ± 0.9 g
same,Tumor Volume,"HCC1806 xenograft; 3 mpk biw, day 2",259 ± 34 mm^3
same,Body Weight,"HCC1806 xenograft; 3 mpk biw, day 4",22.6 ± 1.0 g
same,Tumor Volume,"HCC1806 xenograft; 3 mpk biw, day 4",296 ± 41 mm^3
same,Body Weight,"HCC1806 xenograft; 3 mpk biw, day 7",22.8 ± 1.4 g
same,Tumor Volume,"HCC1806 xenograft; 3 mpk biw, day 7",276 ± 77 mm^3
same,Body Weight,"HCC1806 xenograft; 3 mpk biw, day 9",22.6 ± 1.6 g
same,Tumor Volume,"HCC1806 xenograft; 3 mpk biw, day 9",323 ± 116 mm^3
same,Body Weight,"HCC1806 xenograft; 3 mpk biw, day 11",23.2 ± 1.2 g
same,Tumor Volume,"HCC1806 xenograft; 3 mpk biw, day 11",392 ± 126 mm^3
same,Body Weight,"HCC1806 xenograft; 3 mpk biw, day 14",23.5 ± 1.1 g
same,Tumor Volume,"HCC1806 xenograft; 3 mpk biw, day 14",527 ± 158 mm^3
same,Body Weight,"HCC1806 xenograft; 10 mpk biw, day 0",23.1 ± 0.6 g
same,Tumor Volume,"HCC1806 xenograft; 10 mpk biw, day 0",186 ± 30 mm^3
same,Body Weight,"HCC1806 xenograft; 10 mpk biw, day 2",22.2 ± 1.1 g
same,Tumor Volume,"HCC1806 xenograft; 10 mpk biw, day 2",221 ± 35 mm^3
same,Body Weight,"HCC1806 xenograft; 10 mpk biw, day 4",23.2 ± 0.9 g
same,Tumor Volume,"HCC1806 xenograft; 10 mpk biw, day 4",185 ± 20 mm^3
same,Body Weight,"HCC1806 xenograft; 10 mpk biw, day 7",23.4 ± 0.8 g
same,Tumor Volume,"HCC1806 xenograft; 10 mpk biw, day 7",142 ± 9 mm^3
same,Body Weight,"HCC1806 xenograft; 10 mpk biw, day 9",22.9 ± 1.0 g
same,Tumor Volume,"HCC1806 xenograft; 10 mpk biw, day 9",92 ± 2 mm^3
same,Body Weight,"HCC1806 xenograft; 10 mpk biw, day 11",22.5 ± 1.2 g
same,Tumor Volume,"HCC1806 xenograft; 10 mpk biw, day 11",84 ± 6 mm^3
same,Body Weight,"HCC1806 xenograft; 10 mpk biw, day 14",23.8 ± 0.7 g
same,Tumor Volume,"HCC1806 xenograft; 10 mpk biw, day 14",67 ± 11 mm^3
same,TGI,"HCC1806 xenograft; HCC1806, 1 mpk, biw, day 14",8.6%
same,Tumor Volume,"HCC1806 xenograft; HCC1806, 1 mpk, biw, day 14",1169 ± 137 mm^3
same,TGI,"HCC1806 xenograft; HCC1806, 3 mpk, biw, day 14",68.6%
same,Tumor Volume,"HCC1806 xenograft; HCC1806, 3 mpk, biw, day 14",527 ± 158 mm^3
same,TGI,"HCC1806 xenograft; HCC1806, 10 mpk, biw, day 14",111.1%
same,Tumor Volume,"HCC1806 xenograft; HCC1806, 10 mpk, biw, day 14",67 ± 11 mm^3
same,Best response at 10 mg/kg,"HCC1806 xenograft; HCC-1806, 10 mg/kg",CR
same,Minimally Effective Dose IV BIW,"HCC1806 xenograft; HCC-1806, dose leading to tumor-stasis",<10 mg/kg
same,tumor volume after regression,HCC1806 xenograft; after 2-3 weeks 10 mg/kg biw,below 50 mm3
